In US20180098969A1, “HODGKIN LYMPHOMA THERAPY” (Purdue Pharmaceutical Products L.P., priority 2016, published 2018):

Assays:
L428 cells = experiment: Xenograft in NSG mice, CD30 immunofluorescence of cytospin slides; assay type: in vivo; design: key to Spleen, red pulp activation, diffuse / Liver, Tumour cell infiltration: “0”=without any staining; “1”=minimal, <1% staining; “2”=mild, 1% staining; “3”=moderate, <10% staining; “4”=marked, 10-40% staining; “5”=severe, >40% of cells staining; settings: for Bone Marrow: Tumour infiltration: Marked / Bone Marrow: Tumour infiltration: Mild / Bone Marrow: Tumour infiltration: Minimal / Bone Marrow: Tumour infiltration: Moderate / Bone Marrow: Tumour infiltration: No / Bone Marrow: Tumour infiltration: Overall / Bone Marrow: Tumour infiltration: Severe / Injection site: Tumour infiltration: Marked / Injection site: Tumour infiltration: Mild / Injection site: Tumour infiltration: Minimal / Injection site: Tumour infiltration: Moderate / Injection site: Tumour infiltration: No / Injection site: Tumour infiltration: Overall / Injection site: Tumour infiltration: Severe / Liver: Tumour infiltration: Marked / Liver: Tumour infiltration: Mild / Liver: Tumour infiltration: Minimal / Liver: Tumour infiltration: Moderate / Liver: Tumour infiltration: No / Liver: Tumour infiltration: Overall / Liver: Tumour infiltration: Severe / Spleen: Tumour infiltration: Marked / Spleen: Tumour infiltration: Mild / Spleen: Tumour infiltration: Minimal / Spleen: Tumour infiltration: Moderate / Spleen: Tumour infiltration: No / Spleen: Tumour infiltration: Overall / Spleen: Tumour infiltration: Severe / Tumour presence: Overall: % of mice
Source text: Immunodeficient NOD-SCID-gammac−/− (NSG) mice aged 5 to 6 weeks were purchased from Charles River (NOD.Cg-Prkdcscid Il2rgtm1Wjl/SzJ). The mice arrived two weeks before the beginning of the experiments and were housed in micro-isolator cages during the entire course of the study. Immediately prior to the injection of Hodgkin lymphoma cells, mice were exposed to 3 Gy gamma irradiation using an IBL637 ^137Cs irradiator at a dose rate of 0.61 Gy/min. From 10^3 to 10^6 cells, either from the original cell lines or following amplification, were injected intravenously via the retro-orbital sinus. The mice were sacrificed by cervical dislocation and different organs were analysed and tumoural infiltration examined using multiple techniques.
Two independent experiments were performed to investigate the dose-effect of EDO-S101 in NSG mice eight weeks after xenografting with L428 cells as in Example 8. The aim of the protocol shown in FIG. […]
The mice were sacrificed by cervical dislocation. The sampled organs consisted of the eyes (site of injection), liver, spleen and bone marrow. Following dissection of different organs, including tumours, the first portion was used for flow cytometry (FACS) and cytogenetic analyses while the second was fixed in 4% paraformaldehyde (PFA) for immunohistochemistry (IHC). To obtain a single cell suspension, the tissues were first cut into pieces. Thereafter, the cells were physically disaggregated using an 80 μm nylon cell strainer and filtered a second time through a 70 μm nylon cell strainer (BD Biosciences, Erembodegem, Belgium).
Cells were cytospun onto poly-L-lysine-coated glass slides at 700 rpm for 4 min, fixed with 10% formalin for 10 min, and treated with 0.25% Triton X-100 solution for 10 min. After blocking with 5% bovine serum albumin (Sigma), the cells were incubated with an anti-CD30 antibody (DAKO A/S, Glostrup, Denmark). Then, cells were treated with Cyanine 3 anti-mouse IgG (Invitrogen, Carlsbad, Calif.). As a negative control, staining was carried out in the absence of primary antibody. The L428-s cell line served as positive control.
Individual microscopic findings following immunofluorescence CD30 staining of cytopsin slides: “0”=without any staining; “1”=minimal, <1% staining; “2”=mild, 1% staining; “3”=moderate, <10% staining; “4”=marked, 10-40% staining; “5”=severe, >40% of cells staining.

[1] = Weight of xenografted mice; assay type: in vivo, NSG mice
Procedure: Two independent experiments were performed to investigate the dose-effect of EDO-S101 in NSG mice eight weeks after xenografting with L428 cells as in Example 8. The aim of the protocol shown in FIG. 8B was to evaluate the effect of sequential treatment with a moderate dose of 60 mg/kg given at an interval of three weeks.
This weight loss was also observed in mice treated with the vehicle. In contrast, the weight of the control mice receiving only freshly prepared phosphate buffered saline (PBS) buffered to 7.3-7.4 increased up to 11 weeks and then started to decrease.
The toxicity of the dose of 80 mg/kg compared to 60 mg/kg was investigated, as compared to the control groups vehicle and PBS.

## Cn1c(CCCCCCC(=O)NO)nc2cc(N(CCCl)CCCl)ccc21 [EDO-S101]
L428 cells; 80 mg/kg
  Bone Marrow: Tumour infiltration: Marked: 0.0%
  Bone Marrow: Tumour infiltration: Mild: 0.0%
  Bone Marrow: Tumour infiltration: Minimal: 33.3%
  Bone Marrow: Tumour infiltration: Moderate: 0.0%
  Bone Marrow: Tumour infiltration: No: 33.3%
  Bone Marrow: Tumour infiltration: Overall: 33.3%
  Bone Marrow: Tumour infiltration: Severe: 0.0%
  Injection site: Tumour infiltration: Marked: 0.0%
  Injection site: Tumour infiltration: Mild: 33.3%
  Injection site: Tumour infiltration: Minimal: 0.0%
  Injection site: Tumour infiltration: Moderate: 0.0%
  Injection site: Tumour infiltration: No: 0.0%
  Injection site: Tumour infiltration: Overall: 33.3%
  Injection site: Tumour infiltration: Severe: 0.0%
  Liver: Tumour infiltration: Marked: 0.0%
  Liver: Tumour infiltration: Mild: 0.0%
  Liver: Tumour infiltration: Minimal: 0.0%
  Liver: Tumour infiltration: Moderate: 0.0%
  Liver: Tumour infiltration: No: 100.0%
  Liver: Tumour infiltration: Overall: 0.0%
  Liver: Tumour infiltration: Severe: 0.0%
  Spleen: Tumour infiltration: Marked: 0.0%
  Spleen: Tumour infiltration: Mild: 0.0%
  Spleen: Tumour infiltration: Minimal: 0.0%
  Spleen: Tumour infiltration: Moderate: 0.0%
  Spleen: Tumour infiltration: No: 33.3%
  Spleen: Tumour infiltration: Overall: 0.0%
  Spleen: Tumour infiltration: Severe: 0.0%
  Tumour presence: Overall: 66.7%
L428 cells; 1 * 60 mg/kg
  Bone Marrow: Tumour infiltration: Marked: 0.0%
  Bone Marrow: Tumour infiltration: Mild: 0.0%
  Bone Marrow: Tumour infiltration: Minimal: 25.0%
  Bone Marrow: Tumour infiltration: Moderate: 0.0%
  Bone Marrow: Tumour infiltration: No: 0.0%
  Bone Marrow: Tumour infiltration: Overall: 25.0%
  Bone Marrow: Tumour infiltration: Severe: 0.0%
  Injection site: Tumour infiltration: Marked: 75.0%
  Injection site: Tumour infiltration: Mild: 0.0%
  Injection site: Tumour infiltration: Minimal: 0.0%
  Injection site: Tumour infiltration: Moderate: 25.0%
  Injection site: Tumour infiltration: No: 0.0%
  Injection site: Tumour infiltration: Overall: 100.0%
  Injection site: Tumour infiltration: Severe: 0.0%
  Liver: Tumour infiltration: Marked: 0.0%
  Liver: Tumour infiltration: Mild: 0.0%
  Liver: Tumour infiltration: Minimal: 50.0%
  Liver: Tumour infiltration: Moderate: 25.0%
  Liver: Tumour infiltration: No: 25.0%
  Liver: Tumour infiltration: Overall: 75.0%
  Liver: Tumour infiltration: Severe: 0.0%
  Spleen: Tumour infiltration: Marked: 0.0%
  Spleen: Tumour infiltration: Mild: 0.0%
  Spleen: Tumour infiltration: Minimal: 0.0%
  Spleen: Tumour infiltration: Moderate: 0.0%
  Spleen: Tumour infiltration: No: 25.0%
  Spleen: Tumour infiltration: Overall: 0.0%
  Spleen: Tumour infiltration: Severe: 0.0%
  Tumour presence: Overall: 100.0%
L428 cells; 1 * 60 mg/kg, individual mice
  Bone marrow: 1 (“1”=minimal, <1% staining)
  Spleen, red pulp activation, diffuse: 0
L428 cells; 1 * 80 mg/kg, individual mice
  Eye and/or periocular mucosa, periocular tumour cell infiltration, focal/multifocal/diffuse: 2 (“2”=mild, 1% staining)
  Liver, Tumour cell infiltration: 0
  Spleen, red pulp activation, diffuse: 0
L428 cells; 2 * 60 mg/kg
  Bone Marrow: Tumour infiltration: Marked: 0.0%
  Bone Marrow: Tumour infiltration: Mild: 0.0%
  Bone Marrow: Tumour infiltration: Minimal: 55.6%
  Bone Marrow: Tumour infiltration: Moderate: 0.0%
  Bone Marrow: Tumour infiltration: No: 22.2%
  Bone Marrow: Tumour infiltration: Overall: 55.6%
  Bone Marrow: Tumour infiltration: Severe: 0.0%
  Injection site: Tumour infiltration: Marked: 0.0%
  Injection site: Tumour infiltration: Mild: 11.1%
  Injection site: Tumour infiltration: Minimal: 0.0%
  Injection site: Tumour infiltration: Moderate: 0.0%
  Injection site: Tumour infiltration: No: 0.0%
  Injection site: Tumour infiltration: Overall: 11.1%
  Injection site: Tumour infiltration: Severe: 0.0%
  Liver: Tumour infiltration: Marked: 0.0%
  Liver: Tumour infiltration: Mild: 11.1%
  Liver: Tumour infiltration: Minimal: 44.4%
  Liver: Tumour infiltration: Moderate: 0.0%
  Liver: Tumour infiltration: No: 44.4%
  Liver: Tumour infiltration: Overall: 55.6%
  Liver: Tumour infiltration: Severe: 0.0%
  Spleen: Tumour infiltration: Marked: 0.0%
  Spleen: Tumour infiltration: Mild: 0.0%
  Spleen: Tumour infiltration: Minimal: 44.4%
  Spleen: Tumour infiltration: Moderate: 0.0%
  Spleen: Tumour infiltration: No: 11.1%
  Spleen: Tumour infiltration: Overall: 44.4%
  Spleen: Tumour infiltration: Severe: 0.0%
  Tumour presence: Overall: 66.7%
L428 cells; 2 * 60 mg/kg, individual mice
  Eye and/or periocular mucosa, periocular tumour cell infiltration, focal/multifocal/diffuse: 2 (“2”=mild, 1% staining)
L428 cells; single dose of 80 mg/kg
  tumour cells in organs (liver, spleen, bone marrow): No tumour cells were observed in any organs
[1]; 60 mg/kg versus 80 mg/kg
  difference between weight losses: no significant difference
[1]; mouse, in vivo
  weight of the mice or the different organs: No significant difference
[1]; two doses of 60 mg/kg three weeks apart
  weight of the mice: weight loss following each administration which was regained after several weeks
